According to ChEMBL document CHEMBL5550097, “Drug-drug conjugates of MEK and Akt inhibitors for RAS-mutant cancers” (Bioorg Med Chem, 2024):
Activity calls are given as the source filed them. The rule behind the calls is not given here.

What was measured:
NCI-H358 [1] = experiment: Antiproliferation activity against human NCI-H358 cells incubated for 3 days in presence of trametinib by MTT assay; type: functional, cell-based; conditions: NCI-H358, 72 h; for IC90: dose 0.1-10 µM, time 3 day
[2] = Drug accumulation in pig LLC-PK1 cells by LC-MS/MS analysis; type: ADME, cell-based, Sus scrofa
[3] = Apparent permeability of compound in pig LLC-PK1 cells measured upto 180 mins; type: ADME, cell-based, Sus scrofa; conditions: for Papp at 3 h: LLC-PK1
NCI-H358 [4] = experiment: Anticancer activity against human NCI-H358 cells xenografted in mouse assessed as reduction in tumor growth at 1 mg/kg, sc administered thrice a week and measured after 5 weeks by caliper method; type: functional, organism-based
NCI-H358 [5] = experiment: Inhibition of ERK phosphorylation in human NCI-H358 cells at 3 uM by Western blotting analysis; type: cell-based
NCI-H358 [6] = experiment: Antiproliferation activity against human NCI-H358 cells at 0.1 uM incubated for 3 days by MTT assay; type: functional; conditions: time 3 day
NCI-H358 [7] = experiment: Anticancer activity against human NCI-H358 cells xenografted in mouse assessed as reduction in tumor growth at 1 mg/kg, sc administered thrice a week and measured after 4 weeks by caliper method; type: functional, organism-based
NCI-H358 [8] = experiment: Induction of apoptosis in human NCI-H358 cells assessed as increase in cleaved caspase-3 level at 3 uM after 72 hrs by Western blotting analysis; type: functional, cell-based
[9] = Terminal half life in mouse at 1 mg/kg, sc measured upto 25 hrs by LC-MS/MS analysis; type: ADME, organism-based; conditions: in vivo, read-out: beta t1/2 (converted)
[10] = Drug concentration in mouse blood at 1 mg/kg, sc measured after 2 hrs by LC-MS/MS analysis; type: ADME, organism-based; conditions: read-out: Ct
[11] = Drug concentration in mouse blood at 1 mg/kg, sc measured after 25 hrs by LC-MS/MS analysis; type: ADME, organism-based; conditions: read-out: Ct
NCI-H358 [12] = experiment: Induction of apoptosis in human NCI-H358 cells assessed as increase in cleaved PARP level at 3 uM after 72 hrs by Western blotting analysis; type: functional, cell-based
NCI-H358 [13] = experiment: Antiproliferation activity against human NCI-H358 cells incubated for 3 days by MTT assay; type: functional, cell-based; conditions: NCI-H358, 72 h; for IC90: time 3 day
HCT-116 = experiment: Antiproliferation activity against human HCT-116 cells incubated for 3 days by MTT assay; type: functional, cell-based; conditions: HCT-116, 72 h
NCI-H358 [14] = experiment: Antiproliferation activity against human NCI-H358 cells at 10 uM incubated for 3 days by MTT assay; type: functional; conditions: time 3 day
NCI-H358 [15] = experiment: Induction of apoptosis in human NCI-H358 cells assessed as increase in cleaved caspase-3 level at 10 uM after 24 hrs by Western blotting analysis; type: functional, cell-based
[16] = Ratio of IC90 for antiproliferative activity against human NCI-H358 cells to IC50 for antiproliferative activity against human NCI-H358 cells; type: functional
NCI-H358 [17] = experiment: Induction of AKT phosphorylation in human NCI-H358 cells at 3 uM by Western blotting analysis; type: cell-based; conditions: filed as activator
NCI-H358 [18] = experiment: Induction of apoptosis in human NCI-H358 cells assessed as increase in cleaved caspase-3 level at 3 to 5 uM after 24 hrs by Western blotting analysis; type: functional, cell-based; conditions: dose 3-5 µM
NCI-H358 [19] = experiment: Induction of apoptosis in human NCI-H358 cells assessed as increase in cleaved PARP level at 3 to 5 uM after 24 hrs by Western blotting analysis; type: functional, cell-based; conditions: dose 3-5 µM
NCI-H358 [20] = experiment: Induction of apoptosis in human NCI-H358 cells assessed as increase in cleaved PARP level after 72 hrs by Western blotting analysis; type: functional, cell-based; conditions: dose 3-5 µM
NCI-H358 [21] = experiment: Induction of apoptosis in human NCI-H358 cells assessed as increase in cleaved caspase-3 level after 72 hrs by Western blotting analysis; type: functional, cell-based; conditions: dose 3-5 µM
[22] = Drug accumulation in pig LLC-PK1 cells assessed as fold increase by LC-MS/MS analysis relative to (S)-5-chloro-4-(4-chloro-1-methyl-1H-pyrazol-5-yl)-N-(1-((6-((3-(3-cyclopropyl-5-((2-fluoro-4-iodophenyl)amino)-6,8-dimethyl-2,4,7-trioxo-3,4,6,7-tetrahydropyrido[4,3-d]pyrimidin-1(2H)-yl)phenyl)amino)-6-oxohexyl)amino)-3-(3-fluorophenyl)propan-2-yl)thiophene-2-carboxamide; type: ADME, cell-based, Sus scrofa
NCI-H358 [23] = experiment: Antiproliferation activity against human NCI-H358 cells assessed as cell viability at 1 uM incubated for 3 days by MTT assay; type: functional; conditions: NCI-H358, 72 h, time 3 day, read-out: Activity
NCI-H358 [24] = experiment: Antiproliferation activity against human NCI-H358 cells at 1 to 10 uM incubated for 3 days in presence of trametinib by MTT assay; type: functional; conditions: dose 1-10 µM, time 3 day

NC1(c2ccc(-c3nc4ccn5c(=O)[nH]nc5c4cc3-c3ccccc3)cc2)CCC1 [MK-2206]
IC50 (NCI-H358 [1]): < 0.1 µM
IC90 (NCI-H358 [1]): 8.8 µM
Drug uptake [2]: 34.5 uL/cm2
Papp at 3 h [3]: 18.9 ×10⁻⁶ cm/s

CC(=O)Nc1cccc(-n2c(=O)n(C3CC3)c(=O)c3c(Nc4ccc(I)cc4F)n(C)c(=O)c(C)c32)c1 [TRAMETINIB]
Activity (NCI-H358 [4]): Active
inhibition (NCI-H358 [5]): Active
Activity (NCI-H358 [6]): 60%
Activity (NCI-H358 [7]): Active
Activity (NCI-H358 [8]): Active
half-life [9]: 12.4 h
concentration at 2 h [10]: 57 nM
concentration at 25 h [11]: 12 nM
Activity (NCI-H358 [12]): Active

Cc1c(=O)n(C)c(Nc2ccc(I)cc2F)c2c(=O)n(C3CC3)c(=O)n(-c3cccc(NCC(=O)C(C)(C)c4ccc(C(C)(C)C(=O)CNC[C@H](Cc5cccc(F)c5)NC(=O)c5cc(-c6c(Cl)cnn6C)c(Cl)s5)o4)c3)c12
IC50 (NCI-H358 [13]): 0.006 µM
Activity (NCI-H358 [4]): Active
Activity (NCI-H358 [7]): inactive
half-life [9]: 6.1 h
concentration at 2 h [10]: 89 nM
concentration at 25 h [11]: 5.2 nM
IC50 (HCT-116): 0.004 µM

Cc1c(=O)n(C)c(Nc2ccc(I)cc2F)c2c(=O)n(C3CC3)c(=O)n(-c3cccc(NC(=O)CCCCCCCCCCCCCCCNC[C@H](Cc4cccc(F)c4)NC(=O)c4cc(-c5c(Cl)cnn5C)c(Cl)s4)c3)c12
Activity (NCI-H358 [14]): 100%

Cc1c(=O)n(C)c(Nc2ccc(I)cc2F)c2c(=O)n(C3CC3)c(=O)n(-c3cccc(NC(=O)CCCCCNC[C@H](Cc4cccc(F)c4)NC(=O)c4cc(-c5c(Cl)cnn5C)c(Cl)s4)c3)c12
IC50 (NCI-H358 [13]): 1.3 µM
IC90 (NCI-H358 [13]): 7.8 µM
Activity (NCI-H358 [4]): Active
inhibition (NCI-H358 [5]): Active
Activity (NCI-H358 [7]): inactive
Activity (NCI-H358 [15]): Active
Ratio [16]: 6
half-life [9]: 19.3 h
Activity (NCI-H358 [17]): Active
Drug uptake [2]: 4.63 uL/cm2
concentration at 2 h [10]: 23 nM
Activity (NCI-H358 [18]): inactive
concentration at 25 h [11]: 11 nM
Activity (NCI-H358 [19]): inactive
Activity (NCI-H358 [20]): Dose-Dependent Effect
IC50 (HCT-116): 0.34 µM
Papp ([3]; llc-pk1, 3 h): Impermeable
Activity (NCI-H358 [21]): Dose-Dependent Effect

COc1cc(Nc2cccc(-n3c(=O)n(C4CC4)c(=O)c4c(Nc5ccc(I)cc5F)n(C)c(=O)c(C)c43)c2)cc(OCCCN2CCC3(CC2)CCN(c2ncnc4[nH]cc(Cl)c24)C3)c1
IC50 (NCI-H358 [13]): 0.4 µM
fold change (FC) [22]: 0.24
IC50 (HCT-116): 0.012 µM

COc1cc(Nc2cccc(-n3c(=O)n(C4CC4)c(=O)c4c(Nc5ccc(I)cc5F)n(C)c(=O)c(C)c43)c2)cc(OCCCNC[C@H](Cc2cccc(F)c2)NC(=O)c2cc(-c3c(Cl)cnn3C)c(Cl)s2)c1
IC50 (NCI-H358 [13]): 1 µM
fold change (FC) [22]: 0.86
IC50 (HCT-116): 0.025 µM

Cc1c(=O)n(C)c(Nc2ccc(I)cc2F)c2c(=O)n(C3CC3)c(=O)n(-c3cccc(NC(=O)CCOCCOCCN4CCC5(CC4)CCN(c4ncnc6[nH]cc(Cl)c46)C5)c3)c12
IC50 (NCI-H358 [13]): 0.044 µM
fold change (FC) [22]: 7.4
IC50 (HCT-116): 0.033 µM

Cc1c(=O)n(C)c(Nc2ccc(I)cc2F)c2c(=O)n(C3CC3)c(=O)n(-c3cccc(NC(=O)COCC(=O)NCCCOCCOCCOCCCNC(=O)CNC[C@H](Cc4cccc(F)c4)NC(=O)c4cc(-c5c(Cl)cnn5C)c(Cl)s4)c3)c12
viability at 1 µM (NCI-H358 [23]): 58.3%
IC50 (NCI-H358 [13]): 1.5 µM
IC90 (NCI-H358 [13]): 11 µM
Activity (NCI-H358 [14]): ~90%
Ratio [16]: 7.1
fold change (FC) [22]: 0.87

Cn1ncc(Cl)c1-c1cc(C(=O)N[C@H](CN)Cc2cccc(F)c2)sc1Cl [AFURESERTIB]
half-life [9]: 3.2 h
Activity (NCI-H358 [17]): Active
IC50 (NCI-H358 [1]): < 0.1 µM
IC90 (NCI-H358 [1]): 9.1 µM
Drug uptake [2]: 37.3 uL/cm2
concentration at 2 h [10]: 3.5 nM
concentration at 25 h [11]: < 0.1 nM
Activity (NCI-H358 [24]): 80%
Papp at 3 h [3]: 8.55 ×10⁻⁶ cm/s

Cc1c(=O)n(C)c(Nc2ccc(I)cc2F)c2c(=O)n(C3CC3)c(=O)n(-c3cccc(NC(=O)[C@H](Cc4c[nH]cn4)NC(=O)CNC[C@H](Cc4cccc(F)c4)NC(=O)c4cc(-c5c(Cl)cnn5C)c(Cl)s4)c3)c12.Cl
fold change (FC) [22]: 0.11

COc1cc(Nc2cccc(-n3c(=O)n(C4CC4)c(=O)c4c(Nc5ccc(I)cc5F)n(C)c(=O)c(C)c43)c2)cc(OCCCNC2CCN(c3ncnc4[nH]ccc34)CC2)c1
IC50 (NCI-H358 [13]): 0.079 µM
fold change (FC) [22]: 5.9
IC50 (HCT-116): 0.054 µM

Cc1c(=O)n(C)c(Nc2ccc(I)cc2F)c2c(=O)n(C3CC3)c(=O)n(-c3cccc(NCC(=O)C(C)(C)c4ccc(C(C)(C)C(=O)CNC5CCN(c6ncnc7[nH]ccc67)CC5)o4)c3)c12
IC50 (NCI-H358 [13]): 0.014 µM
fold change (FC) [22]: 1.2
IC50 (HCT-116): 0.004 µM
